For assay [1], the system named is Adriamycin-Resistant Human Ovary Cancer Cells (A2780/ADM). Kind of assay: Test on Vindesine Resistance Using Adriamycin-Resistant Human Ovary Cancer Cells (A2780/ADM).
Procedure: (§1) A2780/ADM cells were diluted with an RPMI 1640 medium (430-1800 EB, produced by GIBCO) containing 10% fetal bovine serum (200-6140AG, produced by GIBCO) and 1% glutamine (320-5030 PG, produced by GIBCO) to a concentration of 30000 cells/ml. One milliliter of the cell suspension was inoculated to each well of a 24-well microtiter plate and cultured under conditions of 37°C, 5% CO₂, and a humidity of 95% or higher for 1 day. A mixture of 0.1 ml of a Vindesine solution diluted serially with the above medium and 0.1 ml of the above medium was added to each well as a control group. […] The cells in each well were further cultured under the same conditions as above for additional 3 days, and the number of the cells was counted with a Coulter counter to obtain a 50% growth inhibitory concentration (IC₅₀) of the control groups and the test groups.
The test system is the same in assay [2]. The note with it: 72 h.
Procedure: as §1
The subject of assay [3] is Vincristine-Resistant Mouse Leukemia Cells (P388/VCR). Kind of assay: Test on Vincristine Resistance Using Vincristine-Resistant Mouse Leukemia Cells (P388/VCR). The assay is classed as in vivo. The note with it: for T/C: P388/VCR-implanted CDF₁ mice. The protocol: Vincristine-resistant P388 cells (P388/VCR) were suspended in physiological saline, and 5x10⁶ cells/0.2 ml were intraperitoneally implanted to grouped 6-week-old CDF₁ strain male mice, each group consisting of 5 mice. A prescribed amount of Vincristine alone or a mixture of Vincristine and a test compound (I) was intraperitoneally administered for consecutive 5 days from the next day of the implantation. The effect of overcoming the drug resistance was evaluated in terms of T/C, a percentage of the number of survival days of a test group to the number of survival days of a control group.
Vincristine (VCR) used was Vincristine Sulfate, produced by Shionogi & Co., Ltd., dissolved in physiological saline. Compound (I) was suspended in a 0.3% aqueous solution of carboxymethyl cellulose and administered in an amount of 0.1 ml per 10 g-b.w. […]

Where [4] appears, read: A2780, 72 h, read-out: IC₅₀ of Test Compound Alone, A2780/ADM cells, test compound alone, 3 days culture, cell count.

A word on the T/C: it is the ratio of treated to control.

Structures can show the parent of a compound that is named as a salt. Where two headings read alike, the source gives them in different places.

Turning to `COC1C(N(C)C(=O)CN2CCOCC2)CC2OC1(C)n1c3ccccc3c3c4c(c5c6ccccc6n2c5c31)C(=O)NC4O` (stereo not drawn) [Compound I-4], the IC50 in assay [1] (setting [4]) stood at 7 µM. Same read-out and setting: for `CCCCCCOC(=O)C1(O)CC2OC1(C)n1c3ccccc3c3c4c(c5c6ccccc6n2c5c31)C(=O)NC4=O` (stereo not drawn) [Compound I-15] the value was 2.8 µM. The same measure, in the same setting: for `CNC1CC2OC(C)(C1OC)n1c3ccccc3c3c4c(c5c6ccccc6n2c5c31)C(=O)N(C)C4` (stereo not drawn) [Compound I-1] the value was 0.26 µM. With `CCOC(=O)N(C)C1CC2OC(C)(C1OC)n1c3ccccc3c3c4c(c5c6ccccc6n2c5c31)C(=O)N(C)C4` (stereo not drawn) [Compound I-10], the IC50 in assay [1] (A2780, 72 h, read-out: IC₅₀ of Test Compound Alone) was > 10 µM.

As for `COC1C(N(C)CCOC(=O)N2CCN(C)CC2)CC2OC1(C)n1c3ccccc3c3c4c(c5c6ccccc6n2c5c31)C(=O)NC4O` (stereo not drawn) [Compound I-7], the IC50 in assay [1] (setting [4]) turned out to be 9.5 µM. As to `COC1C(N(C)CCO)CC2OC1(C)n1c3ccccc3c3c4c(c5c6ccccc6n2c5c31)C(=O)NC4O` (single isomer, unassigned) [Compound I-8], in assay [2], the IC50 came out at 17.2 µM. As for `CC[C@]1(O)C[C@H]2CN(CCc3c([nH]c4ccccc34)[C@@](C(=O)OC)(c3cc4c(cc3OC)N(C=O)[C@H]3[C@@](O)(C(=O)OC)[C@H](OC(C)=O)[C@]5(CC)C=CCN6CC[C@]43[C@@H]65)C2)C1` [VCR, Vincristine Sulfate, reference compound], the T/C is 112% in assay [3] (VCR alone 0.1 mg/kg i.p. for 5 consecutive days), 116% in assay [3] (VCR alone 0.2 mg/kg i.p. for 5 consecutive days) and 121% in assay [3] (VCR alone 0.4 mg/kg i.p. for 5 consecutive days).

Take `COC1C(N(C)C(=O)CN2CCN(C)CC2)CC2OC1(C)n1c3ccccc3c3c4c(c5c6ccccc6n2c5c31)C(=O)NC4O` (stereo not drawn) [Compound I-6]: the IC50 in assay [1] (setting [4]) is 12.5 µM. With `COC(=O)C1(OC(C)=O)CC2OC1(C)n1c3ccccc3c3c4c(c5c6ccccc6n2c5c31)C(=O)N(C(C)=O)C4` (stereo not drawn) [Compound I-17], in assay [1] (setting [4]), the IC50 was > 100 µM. Same read-out and setting: for `COC1C(N(C)C(=O)N2CCN(C)CC2)CC2OC1(C)n1c3ccccc3c3c4c(c5c6ccccc6n2c5c31)C(=O)NC4O` (stereo not drawn) [Compound I-3] the value was 10 µM. As to `CCCCCCOC(=O)C1(O)CC2OC1(C)n1c3ccccc3c3c4c(c5c6ccccc6n2c5c31)C(=O)NC4` (stereo not drawn) [Compound I-14], the IC50 in assay [1] (setting [4]) was found to be 4.8 µM. Same read-out and setting: the result for `COC1C(N(C)C(=O)CN(C)C)CC2OC1(C)n1c3ccccc3c3c4c(c5c6ccccc6n2c5c31)C(=O)NC4O` (stereo not drawn) [Compound I-5] reads 9.1 µM. In the case of `CC[C@]1(O)C[C@@H]2CN(CCc3c([nH]c4ccccc34)[C@@](C(=O)OC)(c3cc4c(cc3OC)N(C)[C@H]3[C@@](O)(C(N)=O)[C@H](O)[C@]5(CC)C=CCN6CC[C@]43[C@@H]65)C2)C1` [Vindesine, reference compound], in assay [1] (A2780, read-out: IC₅₀ of Vindesine, A2780/ADM cells, control group: Vindesine alone, no test compound), the IC50 came out at 1.3 µM. As for `CCCOC(=O)C1(O)CC2OC1(C)n1c3ccccc3c3c4c(c5c6ccccc6n2c5c31)C(=O)NC4` (stereo not drawn) [Compound I-12], the IC50 in assay [1] (setting [4]) was 0.42 µM. The same measure, in the same setting: for `COC1C(N(C)CCO)CC2OC1(C)n1c3ccccc3c3c4c(c5c6ccccc6n2c5c31)C(=O)NC4O` (single isomer, unassigned) [Compound I-9] the value was 9.2 µM. As to `COC1C(N(C)C(=O)OCc2ccccc2)CC2OC1(C)n1c3ccccc3c3c4c(c5c6ccccc6n2c5c31)C(=O)N(C)C4` (stereo not drawn) [Compound I-2], the IC50 in assay [1] (setting [4]) is > 100 µM. For the same molecule, the T/C in assay [3] (Compound (I-2) alone 22.2 mg/kg i.p. for 5 consecutive days, survival days vs control) was found to be 102%; in assay [3] (VCR 0.1 mg/kg + Compound (I-2) 22.2 mg/kg i.p. for 5 consecutive days), 152%. Moreover, the “effect of overcoming the drug resistance” value in assay [3] (P388/VCR-implanted mice, combined with Vincristine, statement in words) is given as “excellent effects to overcome the drug resistance”. For `CCCCOC(=O)C1(O)CC2OC1(C)n1c3ccccc3c3c4c(c5c6ccccc6n2c5c31)C(=O)NC4` (stereo not drawn) [Compound I-13], the IC50 in assay [1] (setting [4]) came out at 1.1 µM.

In the case of `CCOC(=O)C1(O)CC2OC1(C)n1c3ccccc3c3c4c(c5c6ccccc6n2c5c31)C(=O)NC4` (stereo not drawn) [Compound I-11], the IC50 was 0.16 µM in assay [1] (setting [4]) and 0.77 µM in assay [1] (A2780, read-out: IC₅₀ of Vindesine, A2780/ADM cells, Vindesine with test compound at 0.05 µM).

The values above are taken from patent EP0643966A1, “SENSITIVITY ENHANCER FOR ANTINEOPLASIC AGENT” (KYOWA HAKKO KOGYO CO., LTD., priority 1993, dated 1994).
